Target: T1, AMPA receptor (human GluR1 flip/stargazin expressed in CHO-K1 cells) (Homo sapiens, UniProt P42261)
T1 construct: expressed in transfected cells; host or cells: CHO-K1
Test: AMPA receptor function enhancing activity using calcium influx as index
Format: cell-based
Details: change in fluorescence level in 3 min, 100% = 3 mM glutamic acid + 300 μM cyclothiazide, 0% = 3 mM glutamic acid only
Source text: Human GluR1 flip cDNA was amplified by PCR using forward primer […] (SEQ ID NO: 1) and reverse primer […] (SEQ ID NO: 2) artificially synthesized using human brain-derived cDNA (BD Bio science) as a template. The amplified product was digested with restriction enzymes EcoRI, NotI (TAKARA SHUZO CO. LTD.), and incorporated into the same site of pcDNA3.1(+) (Invitrogen) to construct pcDNA3.1(+)/human GluR1 flip gene. Human stargazin cDNA was amplified by PCR using forward primer […] (SEQ ID NO: 3) and reverse primer. […] (SEQ ID NO: 4) artificially synthesized using human hippocampus cDNA as a template. The amplified product was digested with restriction enzymes XhoI, BamHI (TAKARA SHUZO CO. LTD.), and incorporated into the same site of pcDNA3.1(−) (Invitrogen) to construct pcDNA3.1 Zeo(−)/human stargazin gene.
(2) Construction of GluR1 Flip/Stargazin Expressing Cell
CHO-K1 cells passaged in a culture medium (Ham's F12 medium (Invitrogen) added with 10% inactivated fetal bovine serum (Morgate) and penicillin, streptomycin (Invitrogen)) were detached with 0.05% trypsin, 0.53 mM EDTA (Invitrogen) diluted with D-PBS(−). The detached cells were suspended in a culture medium, and recovered by a centrifugation operation at 1,000 rpm. The recovered cells were suspended again in D-PBS(−), and added to a 0.4 cm electroporation cuvette (BioRad). pcDNA3.1(+)/human GluR1 flip gene (5 μg) and pcDNA3.1 Zeo(−)/human stargazin gene (15 μg) were added, and the mixture was introduced into CHO-K1 cells using Gene Pulser II (BioRad) under the conditions of 950 μFd, […]. The introduced cells were cultured overnight in a culture medium and, the next day, plated in a 96 well plate at 250 cells/well using a selection medium (culture medium added with Zeocin (Invitrogen) to 250 μg/mL). Clones showing drug resistance were selected, and GluR1 flip/stargazin expressing clones were selected by an assay method using calcium influx as an index as shown below.
(3) Measurement Method of AMPA Receptor Function Enhancing Activity of Compound Using Calcium Influx as Index
CHO-K1/GluR1 flip/stargazin expressing cells were plated on a 384 well black transparent bottom plate (FMAT4307723) at 0.5×10^4 cells/well, and cultured in a 37° C., CO2 incubator (SANYO Electric Co., Ltd.) for 2 days. The medium in the cell plate was removed, and a calcium indicator (Calcium 4 Assay Kit, Molecular. Devices) containing 1.25 mM probenecid (Invitrogen) was added at 25 μL/well and the well was left standing in 37° C., CO2 incubator for 1 hr. The cell plate was set in FLITRtetra (Molecular Devices), a mixture (12.5 μL) of 9 mM glutamic acid diluted with assay buffer B (HBSS (Invitrogen), 0.1% BSA, 10 mM HEPES) and a test compound was added, and the amount of change in fluorescence level in 3 min was measured. In the definition here, the amount of change in fluorescence level of well added with glutamic acid at final concentration 3 mM and 300 μM cyclothiazide (TOCRIS) is 100%, the amount of change in fluorescence level of well added only with glutamic acid at final concentration 3 mM is 0%, and the compound activity was calculated according to the following formula. activity (%)=(X−C)/(T−C)×100 T: amount of change in fluorescence level of well added with glutamic acid at final concentration 3 mM and 300 μM cyclothiazide C: amount of change in fluorescence level of well added only with glutamic acid at final concentration 3 mM X: amount of change in fluorescence level of well added with to test compound

T1 sequence (P42261 19-906 isoform P42261-2 limits assumed): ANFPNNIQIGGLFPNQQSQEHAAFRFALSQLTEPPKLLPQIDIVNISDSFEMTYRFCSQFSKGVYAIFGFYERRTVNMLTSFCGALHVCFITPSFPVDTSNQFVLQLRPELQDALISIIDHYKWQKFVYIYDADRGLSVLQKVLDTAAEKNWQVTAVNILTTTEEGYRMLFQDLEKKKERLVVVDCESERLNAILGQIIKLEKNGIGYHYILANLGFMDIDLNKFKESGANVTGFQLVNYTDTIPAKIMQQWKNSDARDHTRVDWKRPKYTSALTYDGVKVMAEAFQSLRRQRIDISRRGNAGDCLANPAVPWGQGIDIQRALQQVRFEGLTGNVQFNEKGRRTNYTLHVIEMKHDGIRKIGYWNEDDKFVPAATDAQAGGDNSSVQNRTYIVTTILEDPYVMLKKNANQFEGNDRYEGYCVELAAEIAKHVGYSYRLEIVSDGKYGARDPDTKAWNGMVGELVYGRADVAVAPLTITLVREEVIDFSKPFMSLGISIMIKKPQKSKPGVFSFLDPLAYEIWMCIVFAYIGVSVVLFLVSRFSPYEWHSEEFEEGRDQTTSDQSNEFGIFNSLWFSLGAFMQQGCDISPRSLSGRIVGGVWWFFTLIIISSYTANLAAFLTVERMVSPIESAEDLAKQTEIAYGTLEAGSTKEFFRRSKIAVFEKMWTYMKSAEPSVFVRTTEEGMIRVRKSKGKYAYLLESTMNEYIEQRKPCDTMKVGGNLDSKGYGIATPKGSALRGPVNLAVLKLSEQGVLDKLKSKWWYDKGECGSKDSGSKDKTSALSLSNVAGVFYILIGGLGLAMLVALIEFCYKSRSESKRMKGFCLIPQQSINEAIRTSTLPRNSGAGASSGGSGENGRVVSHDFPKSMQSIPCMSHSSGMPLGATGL
T1 sequence (Q9Y698 whole entry partner): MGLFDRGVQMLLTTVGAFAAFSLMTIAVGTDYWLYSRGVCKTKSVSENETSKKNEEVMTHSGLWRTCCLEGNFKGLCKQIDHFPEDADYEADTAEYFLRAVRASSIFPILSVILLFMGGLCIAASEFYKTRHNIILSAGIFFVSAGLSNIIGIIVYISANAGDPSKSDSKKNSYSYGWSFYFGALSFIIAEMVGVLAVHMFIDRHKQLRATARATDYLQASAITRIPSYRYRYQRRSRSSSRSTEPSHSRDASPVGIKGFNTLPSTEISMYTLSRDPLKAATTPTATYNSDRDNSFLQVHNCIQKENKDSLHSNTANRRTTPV

| Compound | activity (%) |
| --- | --- |
| CCS(=O)(=O)N[C@H]1CCCO[C@@H]1COc1ccc(C2CC2)cc1 (racemic) [Example 4, 1,5-anhydro-6-O-(4-cyclopropylphenyl)-2,3,4-trideoxy-4-[(ethylsulfonyl)amino]-DL-erythrohexitol] | 86% |
| O=S(=O)(N[C@H]1COCC[C@@H]1COc1ccc(-c2ccc(F)cn2)cc1F)C1CC1 [Example 264, N-[(3R,4S)-4-{[2-fluoro-4-(5-fluoropyridin-2-yl)phenoxy]methyl}tetrahydro-2H-pyran-3-yl]cyclopropanesulfonamide] | 104% |
| CS(=O)(=O)N[C@H]1CCOC[C@@H]1COc1ccc(-n2cc(Cl)cn2)cc1 (racemic) [Example 270, N-[(3RS,4SR)-3-{[4-(4-chloro-1H-pyrazol-1-yl)phenoxy]methyl}tetrahydro-2H-pyran-4-yl]methanesulfonamide] | 74% |
| CCS(=O)(=O)N[C@H]1CCOC[C@@H]1COc1ccc(-n2cccn2)cc1 (single isomer, unassigned) [Example 6, trans-N-[3-{[4-(1H-pyrazol-1-yl)phenoxy]methyl}tetrahydro-2H-pyran-4-yl]ethanesulfonamide] | 82% |
| CCS(=O)(=O)N[C@H]1CCC(F)(F)C[C@@H]1COc1ccc(-c2cccn(C)c2=O)cc1 [Example 267, N-[(1S,2S)-4,4-difluoro-2-{[4-(1-methyl-2-oxo-1,2-dihydropyridin-3-yl)phenoxy]methyl}cyclohexyl]ethanesulfonamide] | 93% |
| CCS(=O)(=O)N[C@H]1CCOC[C@@H]1COc1ccc(-n2cc(Cl)cn2)cc1 (relative stereo) [Example 140, trans-N-[3-{[4-(4-chloro-1H-pyrazol-1-yl)phenoxy]methyl}tetrahydro-2H-pyran-4-yl]ethanesulfonamide] | 90% |
| CCS(=O)(=O)N[C@H]1CCOC[C@@H]1COc1ccc(C(C)=O)c(F)c1 (relative stereo) [Example 131, trans-N-{3-[(4-acetyl-3-fluorophenoxy)methyl]tetrahydro-2H-pyran-4-yl}ethanesulfonamide] | 89% |
| CCS(=O)(=O)N[C@H]1CCOC[C@@H]1COc1ccc(OC(F)F)cc1 (single isomer, unassigned) [Example 124, trans-N-[3-{[4-(difluoromethoxy)phenoxy]methyl}tetrahydro-2H-pyran-4-yl]ethanesulfonamide] | 81% |
| CS(=O)(=O)N[C@H]1CCOC[C@@H]1COc1ccc(-n2cc(C(F)(F)F)cn2)cc1 [Example 265, N-[(3R,4S)-3-({4-[4-(trifluoromethyl)-1H-pyrazol-1-yl]phenoxy}methyl)tetrahydro-2H-pyran-4-yl]methanesulfonamide] | 78% |
| CCS(=O)(=O)N[C@H]1CCOC[C@@H]1COc1ccc(C2CC2)cc1 (relative stereo) [Example 7, trans-N-{3-[(4-cyclopropylphenoxy)methyl]tetrahydro-2H-pyran-4-yl}ethanesulfonamide] | 91% |
| O=S(=O)(N[C@H]1COCC[C@@H]1COc1ccc(-c2ncc(Cl)cc2F)cc1)C1CC1 [Example 383, N-[(3R,4S)-4-{[4-(5-chloro-3-fluoropyridin-2-yl)phenoxy]methyl}tetrahydro-2H-pyran-3-yl]cyclopropanesulfonamide] | 60% |
| CCS(=O)(=O)N[C@H]1COCC[C@@H]1COc1ccc(C(C)C)cc1 (single isomer, unassigned) [Example 110, trans-N-[4-{[4-(1-methylethyl)phenoxy]methyl}tetrahydro-2H-pyran-3-yl]ethanesulfonamide] | 88% |
| O=S(=O)(N[C@@H]1CCCC[C@H]1COc1ccc(C2CC2)cc1)C1CC1 (relative stereo) [Example 12, trans-N-[2-[(4-cyclopropylphenoxy)methyl]cyclohexyl]cyclopropanesulfonamide] | 72% |
| Cc1cc(-c2ccc(OC[C@H]3COCC[C@@H]3NS(C)(=O)=O)cc2)nn1C (racemic) [Example 281, N-[(3RS,4SR)-3-{[4-(1,5-dimethyl-1H-pyrazol-3-yl)phenoxy]methyl}tetrahydro-2H-pyran-4-yl]methanesulfonamide] | 64% |
| CS(=O)(=O)N[C@@H]1CCOC[C@H]1COc1ccc(-c2ncc(Cl)cc2F)cc1 (single isomer, unassigned) [Example 382, N-[(3S,4R)-3-{[4-(5-chloro-3-fluoropyridin-2-yl)phenoxy]methyl}tetrahydro-2H-pyran-4-yl]methanesulfonamide or N-[(3R,4S)-3-{[4-(5-chloro-3-fluoropyridin-2-yl)phenoxy]methyl}tetrahydro-2H-pyran-4-yl]methanesulfonamide] | 59% |
| CCS(=O)(=O)N[C@H]1CCSC[C@@H]1COc1ccc(C2CCOCC2)cc1 [Example 529, N-((3S,4S)-3-((4-(tetrahydro-2H-pyran-4-yl)phenoxy)methyl)tetrahydro-2H-thiopyran-4-yl)ethanesulfonamide] | 89% |
| Cc1cnc(-c2ccc(OC[C@H]3OCCC[C@@H]3NS(=O)(=O)C3CC3)cc2)s1 (racemic) [Example 192, 1,5-anhydro-4-[(cyclopropylsulfonyl)amino]-2,3,4-trideoxy-6-O-[4-(5-methyl-1,3-thiazol-2-yl)phenyl]-DL-erythro-hexitol] | 74% |
| CCS(=O)(=O)N[C@H]1COCC[C@@H]1COc1ccc(-c2ccc(Cl)cn2)cc1 [Example 209, N-[(3R,4S)-4-{[4-(5-chloropyridin-2-yl)phenoxy]methyl}tetrahydro-2H-pyran-3-yl]ethanesulfonamide] | 85% |
| CCS(=O)(=O)N[C@H]1CCN(C(C)=O)C[C@@H]1COc1ccc(OC(F)F)cc1 (relative stereo) [Example 1, trans-N-[1-acetyl-3-{[4-(difluoromethoxy)phenoxy]methyl}piperidin-4-yl]ethanesulfonamide] | 46% |
| CCS(=O)(=O)N[C@H]1CCOC[C@@H]1COc1ccc(-c2ncc(Cl)s2)cc1 (racemic) [Example 261, N-[(3RS,4SR)-3-{[4-(5-chloro-1,3-thiazol-2-yl)phenoxy]methyl}tetrahydro-2H-pyran-4-yl]ethanesulfonamide] | 92% |
| CCS(=O)(=O)N[C@H]1CCOC[C@@H]1COc1ccc(-c2ccc(C(F)(F)F)cn2)cc1 (racemic) [Example 351, N-[(3RS,4SR)-3-({4-[5-(trifluoromethyl)pyridin-2-yl]phenoxy}methyl)tetrahydro-2H-pyran-4-yl]ethanesulfonamide rac] | 70% |
| CCS(=O)(=O)N[C@H]1CCCC[C@@H]1COc1ccc(C(C)C)cc1 [Example 13, N-[(1S,2S)-2-{[4-(1-methylethyl)phenoxy]methyl}cyclohexyl]ethanesulfonamide] | 81% |
| CS(=O)(=O)N[C@H]1CCOC[C@@H]1COc1ccc(-c2ccc(F)cn2)c(F)c1 (single isomer, unassigned) [Example 477, N-[(3R,4S)-3-{[3-fluoro-4-(5-fluoropyridin-2-yl)phenoxy]methyl}tetrahydro-2H-pyran-4-yl]methanesulfonamide or N-[(3S,4R)-3-{[3-fluoro-4-(5-fluoropyridin-2-yl)phenoxy]methyl}tetrahydro-2H-pyran-4-yl]methanesulfonamide] | 68% |

— patent US9527807B2, “Sulfonamide derivative and use thereof” (Takeda Pharmaceutical Company Limited, priority 2011, dated 2016)
